Source: PubChem BioAssay (NCI)
Where “and” joins values, the source holds several entries; their conditions need not be identical. Equal values may be shown once.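 The compound was tested at five concentrations on cells cultured in 96-well plates, with a 48-hour exposure period. At the GI50, growth is halved. Definition used: TGI = concentration required for complete inhibition of growth.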

Legend:
Assay in all cases: inhibition of tumour cell growth, NCI panel, 48 h
[1] = tested on: HS 578T breast
[2] = tested on: LOX IMVI melanoma
[3] = tested on: NCI-H522 lung
[4] = tested on: U251 CNS
[5] = tested on: NCI-H460 lung
[6] = tested on: M14 melanoma
[7] = tested on: 786-0 renal
[8] = tested on: HOP-62 NSCLC
[9] = tested on: SK-MEL-28 melanoma
[10] = tested on: HCT-116 colon

| SMILES | TGI [1] | TGI [2] | TGI [3] | GI50 [4] | TGI [4] | GI50 [5] | TGI [5] | TGI [6] | GI50 [7] | TGI [7] | TGI [8] | TGI [9] | GI50 [10] | TGI [10] | GI50 [1] | GI50 [2] | GI50 [3] | GI50 [6] | GI50 [8] | GI50 [9] |
| --- | --- | --- | --- | --- | --- | --- | --- | --- | --- | --- | --- | --- | --- | --- | --- | --- | --- | --- | --- | --- |
| Cc1cc(C)c2c(=O)cc(-c3ccc(F)cc3)[nH]c2n1 | > 100 µM | > 100 µM | > 100 µM | 95.1 µM | > 100 µM | 51.6 µM | > 100 µM | > 100 µM | 78.8 µM | > 100 µM | > 100 µM | > 100 µM | 50 µM | > 100 µM |  |  |  |  |  |  |
| OC1CCC(COC(c2ccccc2)(c2ccccc2)c2ccccc2)O1 (stereo unspecified) | 35.7 µM | 34.3 µM | 31.8 µM |  | 36 µM |  | 44.5 µM | 32.7 µM |  | 35.2 µM | 33.9 µM | 33.4 µM |  | 30.4 µM |  |  |  |  |  |  |
| O=C(O)c1ccc(NCn2nc(-c3ccccc3O)oc2=S)cc1O | > 100 µM | > 100 µM | > 100 µM | 78.1 µM | > 100 µM | 95.6 µM | > 100 µM | > 100 µM | 95.2 µM | > 100 µM | > 100 µM | > 100 µM | 44.9 µM | > 100 µM | > 100 µM | 25.4 µM | > 100 µM | > 100 µM | > 100 µM | > 100 µM |
| CC[C@@]1(O)C(=O)OCc2c1cc1n(c2=O)Cc2cc3c(OC)cccc3nc2-1 | > 100 µM | 1.14 µM | 2.12 µM | 0.00858 µM |  | 0.000801 µM and < 0.215 µM | 1.27 µM | 1.61 µM | 0.00394 µM | 1.13 µM |  | > 28.1 µM |  | > 100 µM |  | 0.00444 µM | 0.028 µM | 0.00323 µM | 0.000532 µM and < 0.215 µM | 1.72 µM |
| S=C1NC(c2ccccc2)=NC(Cc2ccccc2)(c2ccccc2)N1c1ccccc1 (stereo unspecified) |  | > 100 µM |  |  |  |  | > 100 µM | > 100 µM |  | > 100 µM | > 100 µM | > 100 µM |  | > 100 µM |  |  |  |  |  |  |
| Cc1cn2c(/C=N/NC3=NCCN3)c(-c3ccc(Cl)c([N+](=O)[O-])c3)nc2s1 | 3.97 µM | 1.6 µM |  | 0.947 µM | 1.75 µM | 2.34 µM | > 50 µM | 2.17 µM | 0.908 µM | 2.5 µM | 7.17 µM |  | 0.949 µM | 1.72 µM | 1.5 µM | 0.871 µM |  | 1.06 µM | 1.71 µM |  |
| N#C/C(=C\c1ccc([N+](=O)[O-])cc1)n1nnc2cc(F)c(F)cc21 | 11.4 µM | 2.97 µM | 3.79 µM | 1.66 µM | 3.27 µM | 2.3 µM | 5.84 µM | 3.74 µM | 1.86 µM | 3.37 µM | 4.11 µM | 4.97 µM | 1.54 µM | 3.01 µM | 2.65 µM | 1.55 µM | 1.66 µM | 1.83 µM | 1.78 µM | 2.26 µM |
| COC1OC(CO)C(O)C(NC(=O)N(C)N=O)C1O (stereo unspecified) |  |  | > 100 µM |  | > 100 µM |  | > 100 µM | > 100 µM |  | > 100 µM |  | > 100 µM |  | > 100 µM |  |  |  |  |  |  |
| OCC(O)COc1ccc(F)cc1 (stereo unspecified) |  | > 100 µM | > 100 µM |  | > 100 µM |  | > 100 µM | > 100 µM |  | > 100 µM | > 100 µM | > 100 µM |  | > 100 µM |  |  |  |  |  |  |
| C#CCOCCCC(=O)O |  | > 100 µM |  |  | > 100 µM |  | > 100 µM | > 100 µM |  | > 100 µM | > 100 µM | > 100 µM |  | > 100 µM |  |  |  |  |  |  |
| O=C(Cc1c(C(=O)Nc2ccccc2)sc(C(=O)Nc2ccccc2)c1CC(=O)Nc1ccccc1)Nc1ccccc1 |  | > 100 µM | > 100 µM |  | > 100 µM |  | > 100 µM | > 100 µM |  | > 100 µM | > 100 µM | 19.8 µM |  | > 100 µM |  |  |  |  |  |  |
| CC(=O)OC1C(COC(N)=O)OC(n2c(-c3ccc(C)cc3)cc(-c3ccccc3)c(C#N)c2=O)C(OC(C)=O)C1OC(C)=O (stereo unspecified) |  | > 100 µM | > 100 µM |  | > 100 µM |  | > 100 µM | > 100 µM |  | > 100 µM | > 100 µM | > 100 µM |  | > 100 µM |  |  |  |  |  |  |
| O=C1C2=C(c3ccccc31)C(c1ccccc1Cl)NC(=S)N2 (stereo unspecified) |  |  | > 100 µM |  | > 100 µM |  | > 100 µM | > 100 µM |  | > 100 µM | > 100 µM | > 100 µM |  | > 100 µM |  |  |  |  |  |  |
| C=CCC1=C2CCCCC2CCC1=O (stereo unspecified) |  | > 100 µM | > 100 µM |  | > 100 µM |  | > 100 µM | > 100 µM |  | > 100 µM | > 100 µM | > 100 µM |  | > 100 µM |  |  |  |  |  |  |
| O=C(O)COc1ccc2c3c1C(=O)CCC3CO2 (stereo unspecified) |  | > 100 µM | > 100 µM |  | > 100 µM |  | > 100 µM | > 100 µM |  | > 100 µM | > 100 µM | > 100 µM |  | > 100 µM |  |  |  |  |  |  |
| CCOC(=O)c1sc(Nc2cc(Cl)ccc2Cl)nc1C |  | > 100 µM | > 100 µM |  | > 100 µM |  | > 100 µM |  |  | > 100 µM | > 100 µM | > 100 µM |  | > 100 µM |  |  |  |  |  |  |
| COC(=O)C(=O)C(C(=O)C(=O)Nc1ccccc1C(N)=O)c1nc2ccc([N+](=O)[O-])cc2[nH]c1=O (stereo unspecified) |  | > 100 µM | > 100 µM |  | > 100 µM |  | > 100 µM | > 100 µM |  | > 100 µM | > 100 µM | > 100 µM |  | > 100 µM |  |  |  |  |  |  |
| Cc1cc(S(=O)(=O)Nc2n[nH]c(-c3ccc(Cl)cc3)c2C#N)c(S)cc1Cl | > 100 µM | > 100 µM | > 100 µM | > 100 µM | > 100 µM | > 100 µM | > 100 µM | > 100 µM | > 100 µM | > 100 µM | > 100 µM | > 100 µM |  |  | 35.8 µM | > 100 µM | > 100 µM | > 100 µM | > 100 µM | > 100 µM |
